Source: US20200407717A1, “METHODS OF MODULATING ANTISENSE ACTIVITY” (Ionis Pharmaceuticals, Inc., priority 2018, published 2020)
e = 2'-O-(2-methoxyethyl) (MOE); d = 2'-deoxy (DNA)

Tested on: Drosha mRNA
Assay: Antisense activity by RT-qPCR, Drosha, A431 cells
Assay type: cell-based, Human
Method: A431 cells were grown at 10,000 cells per well and pre-treated with a variety of growth factors to determine if the addition of exogenous growth factors affects antisense activity or uptake of modified antisense oligonucleotides in a cell. The growth factors used were EGF, insulin growth factor (IGF), transforming growth factor (TGF), […] (VEGF), hepatocyte growth factor (HGF), platelet growth factor (PGF) and fibroblasts growth factor (FGF). To test antisense activity, cells were treated for 4 hours with a growth factor or vehicle alone, and then treated with compound no. 25690 (complementary to Drosha), compound no. 395254 (complementary to Malat1), or vehicle alone. RNA was isolated from the cells and Drosha or Malat1 RNA levels were measured by RT-qPCR. Human primer probe set 13816 (forward sequence […], designated herein as SEQ ID NO: 3; reverse sequence […], designated herein as SEQ ID NO: 4; probe sequence […], designated herein as SEQ ID NO: 5) was used to measure Drosha mRNA levels and primer probe set RTS2736 (forward sequence […], designated herein as SEQ ID NO: 6; reverse sequence […], designated herein as SEQ ID NO: 7; probe sequence TGCCACATCGCCACCCCGT, designated herein as SEQ ID NO: 8) was used to measure Malat1 RNA levels. Drosha and Malat1 RNA levels were normalized to total RNA content, as measured by RIBOGREEN®. Results are presented in the tables below as normalized RNA levels, relative to untreated control cells.
A431 cells were treated with EGF or TGF at 200 ng/mL in the presence or absence of 1 μM of the EGFR tyrosine kinase inhibitor PD174265. The cells were then treated with compound no. 25690 or compound no. 395254 as in Example 8. Total RNA was isolated and analyzed by RT-qPCR, as in Example 8.
Following siRNA treatment, cells were treated with compound no. 25690 or compound no. 395254 in the presence or absence of EGF. 16 hours after treatment with a PS-ASO with or without EGF, cells were harvested, and RNA levels were analyzed via RT-qPCR as in Example 8.

AGGAAGGAAGCTGGCGATCT (sugars from the 5' end e5 d10 e5, all phosphorothioate, methylation of C not given here) [compound 25690]
Drosha mRNA (% Control) (6250 nM, Control): 66.2 % Control | Drosha mRNA (% Control) (6250 nM, Control Luciferase siRNA): 35.2 % Control | Drosha mRNA (% Control) (6250 nM, Control Luciferase siRNA, Table 26): 47.8 % Control | Drosha mRNA (% Control) (6250 nM, Control luciferase + EGF): 40.9 % Control | Drosha mRNA (% Control) (6250 nM, Control, Table 20): 54.0 % Control | Drosha mRNA (% Control) (6250 nM, EGF): 48.4 % Control | Drosha mRNA (% Control) (6250 nM, EGF+PD174265): 64.7 % Control | Drosha mRNA (% Control) (6250 nM, EGFR siRNA-1): 41.9 % Control | Drosha mRNA (% Control) (6250 nM, EGFR siRNA-2): 39.2 % Control | Drosha mRNA (% Control) (6250 nM, EGFR siRNA-2 + EGF): 62.5 % Control | Drosha mRNA (% Control) (6250 nM, EGFR siRNA-2, Table 26): 64.8 % Control | Drosha mRNA (% Control) (6250 nM, TGF): 43.1 % Control | Drosha mRNA (% Control) (6250 nM, TGF+PD174265): 57.0 % Control | Drosha mRNA (% Control) (10000 nM, Control): 48.2 % Control | Drosha mRNA (% Control) (10000 nM, EGF): 27.7 % Control | Drosha mRNA (% Control) (10000 nM, TGF): 29.7 % Control | Drosha mRNA (% Control) (12500 nM, Control): 56.4 % Control | Drosha mRNA (% Control) (12500 nM, Control Luciferase siRNA): 29.3 % Control | Drosha mRNA (% Control) (12500 nM, Control Luciferase siRNA, Table 26): 41.0 % Control | Drosha mRNA (% Control) (12500 nM, Control luciferase + EGF): 30.9 % Control | Drosha mRNA (% Control) (12500 nM, Control, Table 20): 47.6 % Control | Drosha mRNA (% Control) (12500 nM, EGF): 40.1 % Control | Drosha mRNA (% Control) (12500 nM, EGF+PD174265): 53.6 % Control | Drosha mRNA (% Control) (12500 nM, EGFR siRNA-1): 32.4 % Control | Drosha mRNA (% Control) (12500 nM, EGFR siRNA-2): 39.1 % Control | Drosha mRNA (% Control) (12500 nM, EGFR siRNA-2 + EGF): 47.1 % Control | Drosha mRNA (% Control) (12500 nM, EGFR siRNA-2, Table 26): 49.2 % Control | Drosha mRNA (% Control) (12500 nM, TGF): 29.7 % Control | Drosha mRNA (% Control) (12500 nM, TGF+PD174265): 44.9 % Control | Drosha mRNA (% Control) (20000 nM, Control): 48.8 % Control | Drosha mRNA (% Control) (20000 nM, EGF): 25.4 % Control | Drosha mRNA (% Control) (20000 nM, TGF): 25.5 % Control | Drosha mRNA (% Control) (25000 nM, Control): 45.2 % Control | Drosha mRNA (% Control) (25000 nM, Control Luciferase siRNA): 24.0 % Control | Drosha mRNA (% Control) (25000 nM, Control Luciferase siRNA, Table 26): 37.2 % Control | Drosha mRNA (% Control) (25000 nM, Control luciferase + EGF): 27.1 % Control | Drosha mRNA (% Control) (25000 nM, Control, Table 20): 38.9 % Control | Drosha mRNA (% Control) (25000 nM, EGF): 40.1 % Control | Drosha mRNA (% Control) (25000 nM, EGF+PD174265): 51.2 % Control | Drosha mRNA (% Control) (25000 nM, EGFR siRNA-1): 29.9 % Control | Drosha mRNA (% Control) (25000 nM, EGFR siRNA-2): 35.5 % Control | Drosha mRNA (% Control) (25000 nM, EGFR siRNA-2 + EGF): 41.2 % Control | Drosha mRNA (% Control) (25000 nM, EGFR siRNA-2, Table 26): 42.3 % Control | Drosha mRNA (% Control) (25000 nM, TGF): 23.5 % Control | Drosha mRNA (% Control) (25000 nM, TGF+PD174265): 37.1 % Control | Drosha mRNA (% Control) (40000 nM, Control): 44.3 % Control | Drosha mRNA (% Control) (40000 nM, EGF): 23.6 % Control | Drosha mRNA (% Control) (40000 nM, TGF): 22.7 % Control | Drosha mRNA (% Control) (50000 nM, Control): 40.2 % Control | Drosha mRNA (% Control) (50000 nM, Control Luciferase siRNA): 22.4 % Control | Drosha mRNA (% Control) (50000 nM, Control Luciferase siRNA, Table 26): 33.1 % Control | Drosha mRNA (% Control) (50000 nM, Control luciferase + EGF): 23.2 % Control | Drosha mRNA (% Control) (50000 nM, Control, Table 20): 28.2 % Control | Drosha mRNA (% Control) (50000 nM, EGF): 35.1 % Control | Drosha mRNA (% Control) (50000 nM, EGF+PD174265): 45.3 % Control | Drosha mRNA (% Control) (50000 nM, EGFR siRNA-1): 25.7 % Control | Drosha mRNA (% Control) (50000 nM, EGFR siRNA-2): 31.2 % Control | Drosha mRNA (% Control) (50000 nM, EGFR siRNA-2 + EGF): 31.3 % Control | Drosha mRNA (% Control) (50000 nM, EGFR siRNA-2, Table 26): 29.3 % Control | Drosha mRNA (% Control) (50000 nM, TGF): 17.2 % Control | Drosha mRNA (% Control) (50000 nM, TGF+PD174265): 35.2 % Control | Drosha mRNA (% Control) (100000 nM, Control): 39.2 % Control | Drosha mRNA (% Control) (100000 nM, Control Luciferase siRNA): 19.7 % Control | Drosha mRNA (% Control) (100000 nM, Control Luciferase siRNA, Table 26): 32.1 % Control | Drosha mRNA (% Control) (100000 nM, Control luciferase + EGF): 21.0 % Control | Drosha mRNA (% Control) (100000 nM, Control, Table 20): 25.2 % Control | Drosha mRNA (% Control) (100000 nM, EGF): 32.9 % Control | Drosha mRNA (% Control) (100000 nM, EGF+PD174265): 35.2 % Control | Drosha mRNA (% Control) (100000 nM, EGFR siRNA-1): 24.1 % Control | Drosha mRNA (% Control) (100000 nM, EGFR siRNA-2): 28.4 % Control | Drosha mRNA (% Control) (100000 nM, EGFR siRNA-2 + EGF): 30.4 % Control | Drosha mRNA (% Control) (100000 nM, EGFR siRNA-2, Table 26): 31.2 % Control | Drosha mRNA (% Control) (100000 nM, TGF): 15.2 % Control | Drosha mRNA (% Control) (100000 nM, TGF+PD174265): 30.2 % Control | Drosha mRNA (% Control) (200000 nM, Control): 30.2 % Control | Drosha mRNA (% Control) (200000 nM, Control Luciferase siRNA): 14.9 % Control | Drosha mRNA (% Control) (200000 nM, Control Luciferase siRNA, Table 26): 25.2 % Control | Drosha mRNA (% Control) (200000 nM, Control luciferase + EGF): 21.4 % Control | Drosha mRNA (% Control) (200000 nM, Control, Table 20): 21.2 % Control | Drosha mRNA (% Control) (200000 nM, EGF): 25.1 % Control | Drosha mRNA (% Control) (200000 nM, EGF+PD174265): 33.2 % Control | Drosha mRNA (% Control) (200000 nM, EGFR siRNA-1): 18.5 % Control | Drosha mRNA (% Control) (200000 nM, EGFR siRNA-2): 20.8 % Control | Drosha mRNA (% Control) (200000 nM, EGFR siRNA-2 + EGF): 25.1 % Control | Drosha mRNA (% Control) (200000 nM, EGFR siRNA-2, Table 26): 26.1 % Control | Drosha mRNA (% Control) (200000 nM, TGF): 15.2 % Control | Drosha mRNA (% Control) (200000 nM, TGF+PD174265): 27.2 % Control | IC50 (Control (no growth factor), Table 15): 1470 ± 50 nM | IC50 (Control Luciferase siRNA, Table 24): 1310 ± 40 nM | IC50 (Control Luciferase siRNA, Table 26): 1500 ± 50 nM | IC50 (Control luciferase + EGF, Table 26): 630 ± 40 nM | IC50 (Control, Table 18): 1620 ± 90 nM | IC50 (Control, Table 20): 1390 ± 60 nM | IC50 (EGF 200 ng/mL + 1 μM PD174265, Table 18): 1500 ± 50 nM | IC50 (EGF 200 ng/mL, Table 18): 580 ± 70 nM | IC50 (EGF pre-treatment 4 hours, Table 15): 600 ± 80 nM | IC50 (EGFR siRNA-1, Table 24): 2110 ± 100 nM | IC50 (EGFR siRNA-2 + EGF, Table 26): 2330 ± 110 nM | IC50 (EGFR siRNA-2, Table 24): 2790 ± 70 nM | IC50 (EGFR siRNA-2, Table 26): 2730 ± 100 nM | IC50 (TGF 200 ng/mL + 1 μM PD174265, Table 20): 1490 ± 40 nM | IC50 (TGF 200 ng/mL, Table 20): 500 ± 40 nM | IC50 (TGF pre-treatment 4 hours, Table 15): 590 ± 70 nM | half maximal inhibitory concentration, Drosha (cells treated with IGF, FGF, HGF, VEGF or PGF relative to PS-ASO alone (data not shown)): unchanged
